In patent US20240336611A1 (Insilico Medicine IP Limited, priority 2021, published 2024):

Tests used:
[1] = Metabolic stability in human liver microsomes; format: in vitro ADME; settings: LM Clint (intrinsic clearance); 1 μM test compound, 0.5 mg protein/mL microsome, 37° C., up to 60 min
Description: 2.1. Test Compound and Control Working Solution Preparation: Working solution: 5 µL of compound and control stock solution (10 mM in dimethyl sulfoxide (DMSO)) were diluted with 495 μL of acetonitrile (ACN) (intermediate solution concentration: 100 μM, 99% ACN).
2.2.1. […] 2.2.2. Preparation Procedure: The appropriate amount of NADPH powder were weighed and diluted into a 10 mM MgCl2 solution (working solution concentration: 10 unit/mL; final concentration in reaction system: 1 unit/mL).
2.3.2. Preparation Procedure: The appropriate concentrations of microsome working solutions were prepared in 100 mM potassium phosphate buffer. 2.4. Stop Solution Preparation: Cold (4° C.) acetonitrile (ACN) containing 200 ng/mL tolbutamide and 200 ng/mL labetalol as internal standards (IS) were used as the stop solution.
2.5.1. Pre-warm empty ‘Incubation’ plates T60 and NCF60 for 10 min minutes. 2.5.2. Liver microsomes were diluted to 0.56 mg/mL in 100 mM phosphate buffer. 2.5.3. 445 uL microsome working solutions (0.56 mg/mL) were transferred into pre-warmed ‘Incubation’ plates T60 and NCF60. Then ‘Incubation’ plates T60 and NCF60 were pre-incubated for 10 min at 37° C. with constant shaking. 54 μL liver microsomes were transferred to blank plate, then 6 μL NAPDH cofactor were added to the blank plate, and then 180 μL quenching solution can be added to blank plate. 2.5.4 5 μL compound working solution (100 μM) were added into ‘incubation’ plates (T60 and NCF60) containing microsomes and mix 3 times thoroughly. 2.5.5. For the NCF60 plate, 50 uL of buffer were added and were mixed 3 times thoroughly. Start timing; plate was incubated at 37° C. for 60 min while shaking. 2.5.6. In ‘Quenching’ plate TO, 180 μL quenching solution were added and 6 μL NAPDH cofactor were added. Ensured the plate was chilled to prevent evaporation. 2.5.7. For the T60 plate, were mixed 3 times thoroughly, and immediately removed 54 μL mixture for the 0-min time point to ‘Quenching’ plate. Then 44 μL NAPDH cofactor were added to incubation plate (T60). Start timing; plate were incubated at 37° C. for 60 min while shaking.
2.5.8. At 5, 10, 20, 30, and 60 min, 180 μL quenching solution were added to ‘Quenching’ plates, mix once, and were serially transferred 60 μL sample from T60 plate per time point to ‘Quenching’ plates.
2.5.9. For NCF60: were mixed once, and 60 μL sample were transferred from the NCF60 incubation to ‘Quenching’ plate containing quenching solution at the 60-min time point.
2.5.10. All sampling plates were shaken for 10 min, then centrifuged at 4000 rpm for 20 minutes at 4° C. 2.5.11. 80 μL supernatant were transferred into 240 μL HPLC water, and were mixed by plate shaker for 10 min. 2.5.12. Each bioanalysis plate were sealed and shaken for 10 minutes prior to LC-MS/MS analysis.
3.1. The equation of first order kinetics were used to calculate T1/2 and Intrinsic clearance (CLint mic) in (μL/min/mg).
Equation of first order kinetic.

[2] = biological target: T1, TNIK kinase [amino acid sequence (1-367), Invitrogen] (Homo sapiens, UniProt Q9UKE5); experiment: TNIK kinase inhibition assay (Z-lyte FRET-peptide); format: biochemical; settings: 0.625 nM TNIK kinase, 2 μM Ser/Thr 7 peptide, 64 μM ATP, one hour at room temperature
T1 construct: purchased Invitrogen
T1 sequence (Q9UKE5 1-367): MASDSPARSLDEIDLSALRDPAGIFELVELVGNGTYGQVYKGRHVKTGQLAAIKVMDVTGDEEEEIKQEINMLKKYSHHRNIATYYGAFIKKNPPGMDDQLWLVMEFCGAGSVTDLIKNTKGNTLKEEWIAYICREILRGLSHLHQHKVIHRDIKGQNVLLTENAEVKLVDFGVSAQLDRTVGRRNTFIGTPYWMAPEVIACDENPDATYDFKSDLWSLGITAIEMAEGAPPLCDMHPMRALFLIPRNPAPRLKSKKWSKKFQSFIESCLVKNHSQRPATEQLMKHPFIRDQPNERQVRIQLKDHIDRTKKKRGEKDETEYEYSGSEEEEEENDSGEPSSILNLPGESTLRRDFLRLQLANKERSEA

SMILES | Human Liver Microsome (μM/min/mg) [1] | IC50 [2] [nM]
CC(C)n1cnc(-c2ccc(F)cc2)c1-c1nc(C(=O)Nc2ccc(C3COC3)cc2F)cs1 [Compound 59] | + (>100 μM/min/mg as +) | 1 to 12
CC(C)n1cnc(-c2ccc(F)cc2)c1-c1nc(C(=O)Nc2ccc(C3=C[C@H]4CC[C@@H](C3)N4C)cn2)cs1 [Compound 61, 2-(4-(4-fluorophenyl)-1-isopropyl-1H-imidazol-5-yl)-N-(5-((1R,5S)-8-methyl-8-azabicyclo[3.2.1]oct-2-en-3-yl)pyridin-2-yl)thiazole-4-carboxamide] | ++ (10-100 μM/min/mg as ++) | 1 to 12
O=C(Nc1ccc(C2COC2)cn1)c1coc(-c2c(-c3ccc(F)cc3)ncn2C2CC(F)(F)C2)n1 [Compound 63, 2-(1-(3,3-difluorocyclobutyl)-4-(4-fluorophenyl)-1H-imidazol-5-yl)-N-(5-(oxetan-3-yl)pyridin-2-yl)oxazole-4-carboxamide] | + (>100 μM/min/mg as +) | > 150
CC(C)n1cnc(-c2ccc(F)cc2)c1-c1nc(C(=O)Nc2ccc(N3CC(N(C)C)C3)cn2)cs1 [Compound 64, N-(5-(3-(dimethylamino)azetidin-1-yl)pyridin-2-yl)-2-(4-(4-fluorophenyl)-1-isopropyl-1H-imidazol-5-yl)thiazole-4-carboxamide] | + (>100 μM/min/mg as +) | 1 to 12
O=C(Nc1ccc(N2CCOCC2)cn1)c1csc(-c2c(-c3ccc(F)cc3)ncn2C2CC(F)(F)C2)n1 [Compound 65, 2-(1-(3,3-difluorocyclobutyl)-4-(4-fluorophenyl)-1H-imidazol-5-yl)-N-(5-morpholinopyridin-2-yl)thiazole-4-carboxamide] | ++ (10-100 μM/min/mg as ++) | 1 to 12
O=C(Nc1ccc(N2CCOCC2)cn1)c1coc(-c2c(-c3ccc(F)cc3)ncn2C2CC(F)(F)C2)n1 [Compound 66, 2-(1-(3,3-difluorocyclobutyl)-4-(4-fluorophenyl)-1H-imidazol-5-yl)-N-(5-morpholinopyridin-2-yl)oxazole-4-carboxamide] | ++ (10-100 μM/min/mg as ++) | 12 to 150
O=C(Nc1ccc(N2CCC2)cn1)c1csc(-c2c(-c3ccc(F)cc3)ncn2C2CC(F)(F)C2)n1 [Compound 68, N-(5-(azetidin-1-yl)pyridin-2-yl)-2-(1-(3,3-difluorocyclobutyl)-4-(4-fluorophenyl)-1H-imidazol-5-yl)thiazole-4-carboxamide] | ++ (10-100 μM/min/mg as ++) | 1 to 12
O=C(Nc1ccc(N2CCOCC2)cn1)c1csc(-c2c(-c3ccc(F)cc3)ncn2C2COC2)n1 [Compound 70, 2-(4-(4-fluorophenyl)-1-(oxetan-3-yl)-1H-imidazol-5-yl)-N-(5-morpholinopyridin-2-yl)thiazole-4-carboxamide] | ++ (10-100 μM/min/mg as ++) | 1 to 12
O=C(Nc1ccc(C2COC2)cn1)c1csc(-c2c(-c3ccc(F)cc3)ncn2C2CC(F)(F)C2)n1 [Compound 74, 2-(1-(3,3-difluorocyclobutyl)-4-(4-fluorophenyl)-1H-imidazol-5-yl)-N-(5-(oxetan-3-yl)pyridin-2-yl)thiazole-4-carboxamide] | + (>100 μM/min/mg as +) | 1 to 12
O=C(Nc1ccc(C2COC2)cc1F)c1coc(-c2c(-c3ccc(F)cc3)ncn2C2CC(F)(F)C2)n1 [Compound 81, 2-(1-(3,3-difluorocyclobutyl)-4-(4-fluorophenyl)-1H-imidazol-5-yl)-N-(2-fluoro-4-(oxetan-3-yl)phenyl)oxazole-4-carboxamide] | + (>100 μM/min/mg as +) | 12 to 150
CN1C2CC1CN(c1ccc(NC(=O)c3csc(-c4c(-c5ccc(F)cc5)ncn4C4CC(F)(F)C4)n3)nc1)C2 [Compound 83, 2-(1-(3,3-difluorocyclobutyl)-4-(4-fluorophenyl)-1H-imidazol-5-yl)-N-(5-(6-methyl-3,6-diazabicyclo[3.1.1]heptan-3-yl)pyridin-2-yl)thiazole-4-carboxamide] | ++ (10-100 μM/min/mg as ++) | 1 to 12
CCN1C2CC1CN(c1ccc(NC(=O)c3csc(-c4c(-c5ccc(F)cc5)ncn4C4CC(F)(F)C4)n3)nc1)C2 [Compound 84, 2-(1-(3,3-difluorocyclobutyl)-4-(4-fluorophenyl)-1H-imidazol-5-yl)-N-(5-(6-ethyl-3,6-diazabicyclo[3.1.1]heptan-3-yl)pyridin-2-yl)thiazole-4-carboxamide] | ++ (10-100 μM/min/mg as ++) | 1 to 12
CC(C)n1cnc(-c2ccc(F)cc2)c1-c1nc(C(=O)Nc2ccc(N3CCP(C)(=O)CC3)cn2)cs1 [Compound 85, 2-(4-(4-fluorophenyl)-1-isopropyl-1H-imidazol-5-yl)-N-(5-(4-methyl-4-oxido-1,4-azaphosphinan-1-yl)pyridin-2-yl)thiazole-4-carboxamide] | ++ (10-100 μM/min/mg as ++) | 1 to 12
CN1C2CC1CN(c1ccc(NC(=O)c3csc(-c4c(-c5ccc(F)cc5)ncn4C4CC(F)(F)C4)n3)c(F)c1)C2 [Compound 86, 2-(1-(3,3-difluorocyclobutyl)-4-(4-fluorophenyl)-1H-imidazol-5-yl)-N-(2-fluoro-4-(6-methyl-3,6-diazabicyclo[3.1.1]heptan-3-yl)phenyl)thiazole-4-carboxamide] | ++ (10-100 μM/min/mg as ++) | 1 to 12
CC(C)c1onc(-c2ccc(F)cc2)c1-c1nc(C(=O)Nc2ccc(C3CN(C)C3)cc2F)cs1 [Compound 88, N-(2-fluoro-4-(1-methylazetidin-3-yl)phenyl)-2-(3-(4-fluorophenyl)-5-isopropylisoxazol-4-yl)thiazole-4-carboxamide] | ++ (10-100 μM/min/mg as ++) | 1 to 12
CC(C)c1onc(-c2ccc(F)cc2)c1-c1nc(C(=O)Nc2ccc(C3CN(C)C3)cn2)cs1 [Compound 90, 2-(3-(4-fluorophenyl)-5-isopropylisoxazol-4-yl)-N-(5-(1-methylazetidin-3-yl)pyridin-2-yl)thiazole-4-carboxamide] | ++ (10-100 μM/min/mg as ++) | 1 to 12
CCN1CC(c2ccc(NC(=O)c3csc(-c4c(-c5ccc(F)cc5)ncn4C(C)C)n3)nc2)C1 [Compound 91, N-(5-(1-ethylazetidin-3-yl)pyridin-2-yl)-2-(4-(4-fluorophenyl)-1-isopropyl-1H-imidazol-5-yl)thiazole-4-carboxamide] | ++ (10-100 μM/min/mg as ++) | 1 to 12
CC(C)c1onc(-c2ccc(F)cc2)c1-c1nc(C(=O)Nc2ccc(C3COC3)cc2F)cs1 [Compound 92, N-(2-fluoro-4-(oxetan-3-yl)phenyl)-2-(3-(4-fluorophenyl)-5-isopropylisoxazol-4-yl)thiazole-4-carboxamide] | ++ (10-100 μM/min/mg as ++) | 12 to 150
CC(C)c1noc(-c2ccc(F)cc2)c1-c1nc(C(=O)Nc2ccc(C3COC3)cn2)cs1 [Compound 93, 2-(5-(4-fluorophenyl)-3-isopropylisoxazol-4-yl)-N-(5-(oxetan-3-yl)pyridin-2-yl)thiazole-4-carboxamide] | ++ (10-100 μM/min/mg as ++) | 1 to 12
CC(C)c1onc(-c2ccc(F)cc2)c1-c1nc(C(=O)Nc2ccc(C3COC3)cn2)cs1 [Compound 94, 2-(3-(4-fluorophenyl)-5-isopropylisoxazol-4-yl)-N-(5-(oxetan-3-yl)pyridin-2-yl)thiazole-4-carboxamide] | ++ (10-100 μM/min/mg as ++) | 1 to 12
